Results taken from the NIST ThermoML archive (doi:10.1021/acs.jced.7b01097).
± gives the expanded uncertainty stated by the source.

Details: 3000 kPa, Coriolis flow meter

CCCCCCCCCC [decane]
Details	mass density [kg/m3]
285.3 K, Liquid	736.8 ± 15
313.1 K, Liquid	716.24 ± 14
343.4 K, Liquid	706.6 ± 14
354.5 K, Liquid	682.3 ± 15
373.3 K, Liquid	660.16 ± 13
423.7 K, Liquid	630.21 ± 13
475.8 K, Liquid	588.61 ± 12
523.2 K, Liquid	547.44 ± 12
571.8 K, Liquid	487.16 ± 14
624.2 K, Liquid	365.9 ± 16
673.2 K, Gas	143.74 ± 8.3
700.3 K, Gas	112.44 ± 7
723 K, Gas	96.77 ± 5.3
